PMC8151276, “An Integrated Approach toward NanoBRET Tracers for Analysis of GPCR Ligand Engagement” (Molecules, 2021)

Assays:
Format in all cases: binding
PTAFR = target: T1, PTAFR (Homo sapiens, UniProt P25105); test: NanoBRET screen HiBiT-PTAFR in HEK293
T1 construct: purchased Promega (in-house HiBiT-GPCR construct library, NanoBRET)
Method: (§1) Each tracer candidate was screened across the entire library of HiBiT-GPCR constructs using NanoBRET as the detection modality. As depicted in Figure 4A, the specificity of interactions was evaluated through decrease in BRET due to competitive displacement of a bound tracer by excess parental compound. Each tracer was analyzed for binding to each HiBiT-GPCR fusion in the absence and in the presence of competing parental compound. Briefly, HEK293 cells were transfected with HiBiT-GPCR constructs diluted into promoterless DNA to reduce expression and maximize translocation to the cell surface. Each tracer candidate was then screened at concentrations of 1 μM and 0.1 μM across cells expressing these fusions. Cells were treated for 1.5 h with tracer either alone or in the presence of 20 μM competing parental compound (i.e., control). BRET was measured upon addition of purified LgBiT and subsequent complementation with HiBiT genetically fused to a GPCR. The specificity of interactions was assessed through a decrease in BRET signal due to competitive displacement of the bound tracer. To further gauge the robustness of these interactions, the fold response over the control (i.e., BRETtracer/BRETcontrol) was calculated. We chose a 1.5-fold response, which translates to ≥7-fold signal over noise as the minimal threshold required to score an interaction as positive. […]. Below we highlight the screening results obtained for our exemplary fluorescent tracers based on Clozapine, Amitriptyline and AZD1283.
(§2) HiBiT-GPCR DNA constructs were diluted in 10 mM Tris pH 8 to a final concentration of 0.01 μg/μL, arrayed in 96-well plates and stored at −20 °C. For transfection, HEK293 cells were suspended in Opti-MEM (without phenol red) supplemented with 2% fetal bovine serum (Seradigm) and 100 units/mL penicillin–streptomycin (Gibco) at a final concentration of 220,000 cells/mL and dispensed into white 96-well plates at 90 μL/well. Subsequent transfections and screens were carried using an Agilent Bravo Automated Liquid Handling Platform. First, the 96-well HiBiT DNA arrays were diluted 25-fold in Opti-MEM (without serum or phenol red) to a final concentration of 0.0004 μg/μL and 20 μL of the diluted DNAs were transferred into new 96-well plates. Next, promoterless carrier DNA (1 μg/μL) was diluted 25-fold (0.04 μg/μL) and then dispensed into the diluted arrays at 20 μL/well. Following brief mixing, Viafect transfection reagent (Promega) diluted 16-fold into Opti-MEM was dispensed into the plates at 40 μL/well. After mixing by pipetting, plates were incubated for 10 min on the pipetting station deck. The DNA-transfection reagent complexes were then added to plates containing cells. To facilitate the screen, 10 μL of DNA-transfection reagent complexes were added in duplicates to the top 4 and bottom 4 rows, resulting in two identical 48-well arrays per plate. Plates with transfected cells were incubated for 18–20 h at 37 °C/5% CO2. A screen of each tracer across the entire library using two different concentrations requires duplicate plates of transfected cells. Depending on the number of tracers being screened, transfections can be scaled up using the same ratios. The next day, for each tracer, four 20× screening solutions in tracer dilution buffer (Promega) were prepared: two duplicates at final concentration of 20 μM and two duplicates at a final concentration of 2 μM. A competing unmodified compound was added to one of each duplicate at a final concentration of 400 μM. The four resulting solutions were diluted 4-fold in Opti-MEM without serum or phenol red to generate 5× solutions (5 µM and 0.5 µM tracer +/− 100 μM competing compound). To screen the library, a BioTek MultiFlo FX liquid dispenser was used to dispense 22.5 µL of tracer solution to the top 4 rows and 22.5 µL tracer + competing compound solution to the 4 bottom rows. Plates were briefly mixed on an orbital shaker and incubated for 1.5 h at room temperature. […]

VIPR1 = target: T2, VIPR1 (Homo sapiens, UniProt P32241); test: NanoBRET screen HiBiT-VIPR1 in HEK293
T2 construct: purchased Promega (in-house HiBiT-GPCR construct library, NanoBRET)
T2 sequence (P32241 31-457): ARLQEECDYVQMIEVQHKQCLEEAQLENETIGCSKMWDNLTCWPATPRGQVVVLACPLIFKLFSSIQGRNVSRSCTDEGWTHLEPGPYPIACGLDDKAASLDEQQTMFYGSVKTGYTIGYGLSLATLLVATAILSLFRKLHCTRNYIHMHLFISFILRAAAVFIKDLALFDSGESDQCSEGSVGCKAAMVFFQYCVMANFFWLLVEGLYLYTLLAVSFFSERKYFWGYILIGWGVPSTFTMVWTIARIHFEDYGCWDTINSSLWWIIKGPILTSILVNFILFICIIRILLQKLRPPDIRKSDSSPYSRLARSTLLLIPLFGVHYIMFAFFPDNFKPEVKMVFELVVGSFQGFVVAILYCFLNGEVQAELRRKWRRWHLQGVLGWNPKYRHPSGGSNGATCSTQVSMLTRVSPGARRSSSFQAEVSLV
Method: as §1, §2

MC4R = target: T3, MC4R (Homo sapiens, UniProt P32245); test: NanoBRET screen HiBiT-MC4R in HEK293
T3 construct: purchased Promega (in-house HiBiT-GPCR construct library, NanoBRET)
Method: as §1, §2

[1] = tracer at 0.1μM, listed as amitriptyline-b-2-NB590

T1 sequence (P25105 whole entry): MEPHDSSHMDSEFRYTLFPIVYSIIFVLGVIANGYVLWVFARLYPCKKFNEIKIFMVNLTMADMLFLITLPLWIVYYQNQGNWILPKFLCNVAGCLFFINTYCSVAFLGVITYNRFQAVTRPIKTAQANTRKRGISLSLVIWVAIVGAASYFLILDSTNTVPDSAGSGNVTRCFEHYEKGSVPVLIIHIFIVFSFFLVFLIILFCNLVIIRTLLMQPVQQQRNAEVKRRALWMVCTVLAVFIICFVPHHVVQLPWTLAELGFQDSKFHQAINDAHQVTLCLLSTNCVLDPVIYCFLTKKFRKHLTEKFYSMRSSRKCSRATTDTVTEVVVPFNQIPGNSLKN
T3 sequence (P32245 whole entry): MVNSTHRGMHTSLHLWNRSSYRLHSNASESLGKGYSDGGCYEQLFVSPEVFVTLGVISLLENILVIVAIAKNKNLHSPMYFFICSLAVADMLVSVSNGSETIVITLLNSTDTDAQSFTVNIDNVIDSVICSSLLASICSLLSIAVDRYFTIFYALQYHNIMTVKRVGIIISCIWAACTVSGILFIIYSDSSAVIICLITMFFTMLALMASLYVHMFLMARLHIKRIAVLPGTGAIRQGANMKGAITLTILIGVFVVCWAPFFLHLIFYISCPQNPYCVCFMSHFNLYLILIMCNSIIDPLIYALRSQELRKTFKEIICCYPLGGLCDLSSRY

Row | Structure (SMILES) | NanoBRET Fold Response (PTAFR; PTAFR, tracer 0.1μM) | NanoBRET Fold Response (PTAFR; PTAFR, tracer 1μM) | NanoBRET Fold Response (VIPR1; VIPR1, tracer 0.1μM) | NanoBRET Fold Response (VIPR1; VIPR1, tracer 1μM) | NanoBRET Fold Response (MC4R; MC4R, tracer 0.1μM) | NanoBRET Fold Response (MC4R; MC4R, tracer 1μM) | other results
1 | O=C(CCc1ccc2n1[B-](F)(F)[N+]1=C(c3ccc[nH]3)C=CC1=C2)NCc1ccc(C(=O)NCCOCCC(=O)N[C@@H]2CC[C@@]3(O)[C@H]4Cc5ccc(O)c6c5[C@@]3(CCN4CC3CC3)[C@H]2O6)cc1 [Naltrexone-3-NB590] | 1.24 | 0.78 | 0.95 | 1.36 | 1.06 | 1.06 | –
2 | CCCn1c(=O)c2[nH]c(-c3ccc(OCC(=O)NCCNC(=O)CCOCCNC(=O)c4ccc(CNC(=O)CCc5ccc6n5[B-](F)(F)[N+]5=C(c7ccc[nH]7)C=CC5=C6)cc4)cc3)nc2n(CCC)c1=O [XAC-3-NB590] | 0.90 | 1.15 | 1.03 | 0.99 | 1.02 | 1.04 | –
3 | CC(C)N(CC[C@H](c1ccccc1)c1cc(CCNC(=O)c2ccc(CNC(=O)CCc3ccc4n3[B-](F)(F)[N+]3=C(c5ccc[nH]5)C=CC3=C4)cc2)ccc1O)C(C)C [Tolterodine-BZ-NB590] | 0.93 | 0.85 | 0.97 | 0.98 | 1.00 | 1.01 | –
4 | COc1ccc2[nH]c(-c3ccc(CNC(=O)CCOCCOCCOCCOCCNC(=O)CCc4ccc5n4[B-](F)(F)[N+]4=C(c6ccc[nH]6)C=CC4=C5)cc3)c(CCNC(C)=O)c2n1 [AzomelatoninICO9-2-NB590] | – | – | – | – | – | – | NanoBRET Fold Response (PTAFR; 0.1μM tracer): 1.01; NanoBRET Fold Response (PTAFR; 1μM tracer): 0.99; NanoBRET Fold Response (VIPR1; 0.1μM tracer): 0.89; NanoBRET Fold Response (VIPR1; 1μM tracer): 0.81; NanoBRET Fold Response (MC4R; 0.1μM tracer): 0.92; NanoBRET Fold Response (MC4R; 1μM tracer): 0.98
5 | CN1CCN(C2=Nc3cc(Cl)ccc3N(CC(=O)NCCOCCOCCOCCOCCNC(=O)CCc3ccc4n3[B-](F)(F)[N+]3=C(c5ccc[nH]5)C=CC3=C4)c3ccccc32)CC1 [Clozapine-c-2-NB590] | – | – | – | – | – | – | NanoBRET Fold Response (PTAFR; PTAFR, 0.1μM tracer): 1.01; NanoBRET Fold Response (PTAFR; PTAFR, 1μM tracer): 1.02; NanoBRET Fold Response (VIPR1; VIPR1, 0.1μM tracer): 0.98; NanoBRET Fold Response (VIPR1; VIPR1, 1μM tracer): 1.00; NanoBRET Fold Response (MC4R; MC4R, 0.1μM tracer): 1.02; NanoBRET Fold Response (MC4R; MC4R, 1μM tracer): 1.06
6 | COc1ccccc1N1CCN(CCCCN2C(=O)c3ccc(CNC(=O)CCOCCNC(=O)c4ccc(CNC(=O)CCc5ccc6n5[B-](F)(F)[N+]5=C(c7ccc[nH]7)C=CC5=C6)cc4)cc3C2=O)CC1 [NAN-190-3-NB590] | 1.05 | 1.30 | 0.71 | 1.05 | 1.05 | 0.83 | –
7 | Cc1nc2n(c(=O)c1CCN1CCC(c3noc4cc(F)ccc34)CC1)CCCC2OC(=O)NCCOCCOCCOCCOCCNC(=O)CCc1ccc2n1[B-](F)(F)[N+]1=C(c3ccc[nH]3)C=CC1=C2 (stereo not drawn) [Risperidone-2-NB590] | 1.00 | 1.10 | 0.98 | 1.10 | 1.03 | 1.05 | –
8 | O=C(CCOCCOCCOCCOCCNC(=O)CCc1ccc2n1[B-](F)(F)[N+]1=C(c3ccc[nH]3)C=CC1=C2)NCCCN1CCN(C2=Nc3ccccc3Oc3ccc(Cl)cc32)CC1 [Loxapine-a-2-NB590] | 1.10 | 1.09 | 0.94 | 1.05 | 1.04 | 1.04 | –
9 | COc1ccccc1N1CCN(CCCCN2C(=O)c3ccc(CNC(=O)CCOCCOCCOCCOCCNC(=O)CCc4ccc5n4[B-](F)(F)[N+]4=C(c6ccc[nH]6)C=CC4=C5)cc3C2=O)CC1 [NAN-190-2-NB590] | 1.03 | 1.04 | 1.00 | 1.02 | 0.97 | 1.01 | –
10 | CC(C)N(CC[C@H](c1ccccc1)c1cc(CCNC(=O)CCOCCOCCOCCOCCNC(=O)CCc2ccc3n2[B-](F)(F)[N+]2=C(c4ccc[nH]4)C=CC2=C3)ccc1O)C(C)C [Tolterodine-2-NB590] | 1.17 | 0.73 | 0.99 | 0.78 | 1.07 | 1.00 | –
11 | N#CN=C(NCCCOc1cccc(CN2CCCCC2)c1)NCCNC(=O)CCOCCOCCOCCOCCNC(=O)CCc1ccc2n1[B-](F)(F)[N+]1=C(c3ccc[nH]3)C=CC1=C2 [Aminopotentidine-2-NB590] | 0.95 | 1.02 | 1.02 | 1.00 | 0.99 | 0.89 | –
12 | CCOC(=O)c1cc(C#N)c(N2CCC(C(=O)NS(=O)(=O)Cc3ccccc3/C=C/C(=O)NCCNC(=O)CCc3ccc4n3[B-](F)(F)[N+]3=C(c5ccc[nH]5)C=CC3=C4)CC2)nc1C [AZD1283-1-NB590] | – | – | – | – | – | – | NanoBRET Fold Response (PTAFR; PTAFR, 0.1μM): 1.01; NanoBRET Fold Response (PTAFR; PTAFR, 1μM): 1.17; NanoBRET Fold Response (VIPR1; VIPR1, 0.1μM): 0.99; NanoBRET Fold Response (VIPR1; VIPR1, 1μM): 1.02; NanoBRET Fold Response (MC4R; MC4R, 0.1μM): 0.98; NanoBRET Fold Response (MC4R; MC4R, 1μM): 1.01
13 | CN(C)CCC=C1c2ccccc2CCc2ccc(C(=O)NCCNC(=O)CCOCCOCCOCCOCCNC(=O)CCc3ccc4n3[B-](F)(F)[N+]3=C(c5ccc[nH]5)C=CC3=C4)cc21 [Amitriptyline-b-2-NB590] | – | – | – | – | – | – | NanoBRET Fold Response (PTAFR; [1]): 0.92; NanoBRET Fold Response (PTAFR; tracer at 1μM, listed as amitriptyline-b-2-NB590): 1.02; NanoBRET Fold Response (VIPR1; [1]): 0.98; NanoBRET Fold Response (VIPR1; tracer at 1μM): 0.96; NanoBRET Fold Response (MC4R; tracer at 0.1μM): 1.00; NanoBRET Fold Response (MC4R; tracer at 1μM): 1.02
14 | CN(C)CCC=C1c2ccccc2CCc2ccc(C(=O)NCCNC(=O)CCOCCOCCOCCOCCNC(=O)CCc3ccc4n3[B-](F)(F)[N+]3=C(c5ccc[nH]5)C=CC3=C4)cc21 [Amitriptyline-a-2-NB590] | – | – | – | – | – | – | NanoBRET Fold Response (PTAFR; tracer at 0.1μM): 1.10; NanoBRET Fold Response (PTAFR; tracer at 1μM): 0.90; NanoBRET Fold Response (VIPR1; tracer at 0.1μM): 0.95; NanoBRET Fold Response (VIPR1; tracer at 1μM): 1.07
15 | CN(CCC=C1c2ccccc2CCc2ccccc21)C(=O)CCOCCOCCOCCOCCNC(=O)CCc1ccc2n1[B-](F)(F)[N+]1=C(c3ccc[nH]3)C=CC1=C2 [Amitriptyline-e-2-NB590] | – | – | – | – | – | – | NanoBRET Fold Response (PTAFR; tracer at 1μM): 1.06; NanoBRET Fold Response (VIPR1; tracer at 1μM): 1.06
